# Measurements published in patent publication US6540977B1, “Cyanidin compositions and therapeutic and diagnostic uses therefor” (Medarex, Inc., priority 1996, dated 2003).
# Biological target: T1, human FcγRI (Homo sapiens, UniProt P12314)
# T1 construct: expressed in transfected cells; host or cells: mouse IIA1.6 B cells
# Assay: Staining of IIA1.6 B cell transfectants expressing human FcγRI
# Format: binding
# Conditions: unconjugated Cy5; FcγRI transfectants vs untransfected IIA1.6
# Description: To assess the specificity of binding of PE-Cy5 conjugates to FcγRI, a series of FcR-transfectants, each transfectant engineered to express one FcR molecular type, was tested. Recipient IIA1.6 cells mouse B cells are devoid of IgG receptors; samples were transfected with each of the genes encoding the different human Fc receptors for IgG (FcγRI, CD64; Van Vugt M J, et al., 1996, Blood 87:3593; FcγRIIa, CD32; FcγRIIb1, CD32, Van den Herik-Oudijk I E, et al., 1995, Blood 85:2202) and for IgA receptor FcαR, CD89 (Morton H C, et al., 1995, J Biol Chem 270:29781) derived from the A20 B cell lymphoma (Morton, H C, et al., supra). Transfectants were stained with different PE-Cy5 mAb conjugates (covalently linked to antibodies to CD3, CD4, or CD8). […]
# Untransfected IIA1.6 B-cells and these cells transfected with the gene for human FcγRI (see references, supra), 2×10^5 cells in 20 μl per test, were stained for one hour at 4° C. with 10 μl Cy5. […] All fluorescence experiments were performed using band filter gates for excitation and emission wavelengths appropriate for PE-Cy5 described supra, so that diminished activity for Cy5 in comparison with PE and PE-Cy5 is due to comparatively low absorption by Cy5 at 488 nm.
# T1 sequence (P12314 16-374): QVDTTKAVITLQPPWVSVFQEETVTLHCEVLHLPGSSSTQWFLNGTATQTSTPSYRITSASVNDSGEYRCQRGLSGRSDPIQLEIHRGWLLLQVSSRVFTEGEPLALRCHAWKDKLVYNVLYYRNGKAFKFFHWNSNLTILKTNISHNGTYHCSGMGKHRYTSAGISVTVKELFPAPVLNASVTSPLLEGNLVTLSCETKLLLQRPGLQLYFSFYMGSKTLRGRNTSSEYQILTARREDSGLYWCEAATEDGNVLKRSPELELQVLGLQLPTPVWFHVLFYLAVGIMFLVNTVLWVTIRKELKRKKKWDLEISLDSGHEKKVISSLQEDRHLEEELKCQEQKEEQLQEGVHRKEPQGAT
substance,measurement,value
"5,5′-bis-sulfo-1,1′-(ε-carboxyphenyl)-3,3,3′,3′-tetramethylindodicarbocyanin-disuccinimidyl ester [Cy5]",mean fluorescent intensity of transfectants versus control cells,at least an order of magnitude greater
